Experimental data reported in paper PMC5317004 (Scientific Reports, 2017).

Experiment: Time-dependent IVM partitioning into the CHO cell membrane (removal from aqueous phase, absorbance at 245 nm)
Type: physicochemical, Chinese hamster
Settings: 4 μM IVM, 140,000 CHO cells in 1 ml
Method: Figure 7 Recovery of ACh-evoked currents in the absence or presence of IVM. […] (B) Representative currents for the same experiment as in A, but with IVM (0.5 μM) added after peak IP1. Currents in A and B were measured at −60 mV. […] Red bars correspond to ACh-elicited currents where IVM was added as in panel B (N = 5). Error bars correspond to SEM. Asterisks correspond to unpaired, two-tailed Student’s t-tests with 0.001 < *P < 0.05, 0.0001 < **P < 0.001 and ***P < 0.0001. (D) Fractional removal of IVM from the aqueous phase of a 1-ml solutions containing 140,000 CHO cells and 4 μM IVM. Removal of IVM was determined following the indicated incubation times by measuring the absorbance of supernatants at 245 nm wavelength (e.g., Supplementary Fig. S3; Supplementary Materials and Methods). Note that, no IVM removal is indicated at the top of the y-axis. […]
To assess the IVM partitioning into the CHO cell plasma membrane during a short time period, we followed the procedure of Silberberg et al.[58] with a few modifications accounting for our experimental conditions. To this end, we incubated 140,000 CHO cells (correspond to 3.2 μM plasma membrane lipids[121]) with 4 μM IVM for either 0, 15 or 300 seconds, pelleted the cells by a brief centrifugation (30 seconds), and analyzed the extent of IVM removal from the aqueous solution (elaborated in the Supplementary Materials and Methods). […]

CC[C@H](C)[C@H]1O[C@]2(CC[C@@H]1C)C[C@@H]1C[C@@H](C/C=C(\C)[C@@H](O[C@H]3C[C@H](OC)[C@@H](O[C@H]4C[C@H](OC)[C@@H](O)[C@H](C)O4)[C@H](C)O3)[C@@H](C)/C=C/C=C3\CO[C@@H]4[C@H](O)C(C)=C[C@@H](C(=O)O1)[C@]34O)O2 [IVM, Ivermectin]
IVM removed from the aqueous solution by the CHO cells (15 seconds of incubation): no statistically significant amount | IVM removed from the aqueous solution by the CHO cells (5 minutes of incubation): ~24%
